Paper PMC12610274, “Identification of Marrubiin as a Cathepsin C Inhibitor for Treating Rheumatoid Arthritis” (Molecules, 2025)

Key:
CTSB = molecular target: T1, CTSB (Homo sapiens, UniProt P07858); assay: Human recombinant cathepsins isolated enzyme assay, CTSB; format: biochemical; conditions: read-out: CTSB Enz (IC50: μM)
T1 construct: purchased R&D Systems
Description: (§1) The protocol for evaluating the inhibitory potency of compounds against other cathepsins referred to the CTSC activity assay. Recombinant human CTSB, CTSL, CTSS and CTSK for testing were also purchased from R&D Systems Biotechnology Company. Recombinant human Cat G, NE, and PR3 For testing were purchased from MedChemExpress. A multi-functional microplate reader was used to measure the absorption of Z-Leu-Arg-AMC at excitation/emission wavelengths of 380/460 nm to assess the activity changes of CTSB and CTSL, while the absorption of MCA-Arg-Pro-Lys-Pro-Val-Glu-NVAL-Trp-Arg-Lys(DNP)-NH2 at 320/405 nm was measured to evaluate the activity changes of CTSS and CTSK. Different assay buffers were prepared for diluting samples and measuring the activities of specific NSPs: a buffer containing 50 mM Tris and 750 mM NaCl (pH 7.4) was used for NE and PR3; a buffer containing 50 mM Tris, 750 mM NaCl, 5 mM EDTA (pH 7.4) was used for Cat G; and a buffer containing 25 mM MES, 50 mM NaCl, 5 mM DTT (pH 6.0) was used for CTSC. Synthetic substrates were employed to assess the activities of NSPs and CTSC: H-Gly-Arg-AMC for CTSC, N-MeSuc-Ala-Ala-Pro-Val-pNA for NE, aminobenzoyl-Val-Ala-Asp-Cys-Ala-Asp-Gln-ethylenediamine 2,4-dinitrophenyl for PR3, and N-Suc-Ala-Ala-Pro-Phe-pNA for Cat G. Each group of tests was independently repeated at least 3 times, and IC50 values were calculated using SPSS 10.0.

Dipeptidyl Peptidase 4 = Dipeptidyl Peptidase 4 (Homo sapiens, UniProt P27487); assay: Recombinant dipeptidyl peptidases isolated enzyme assay, DPP4; format: biochemical; conditions: read-out: Dipeptidyl Peptidase 4 Enz (IC50: μM)
Description: Table 3 Inhibitory effects of marrubiin on dipeptidyl peptidase. | column: Dipeptidyl Peptidase 4 Enz (IC50: μM)

AIA model = assay: Adjuvant-induced arthritis (AIA) model, disease severity; format: in vivo, Sprague-Dawley rats; conditions: rat AIA
Protocol: Thirty 4-week-old male Sprague-Dawley rats (weighing 120–130 g) were randomly divided into 6 groups (5 rats per group) after 1 week of adaptive feeding, namely the normal group, model group, low-dose experimental group (15 mg/kg), medium-dose experimental group (30 mg/kg), high-dose experimental group (60 mg/kg), and positive control group (30 mg/kg). Starting from Day 0 of the experiment, rats in the administration groups and model group were injected intradermally with 0.1 mL of CFA into the left hind paw to induce AIA, while rats in the normal group were injected intradermally with an equal volume (0.1 mL) of normal saline as a control. After 13 consecutive days of feeding, rats treated with CFA successfully developed typical AIA symptoms. […] During the experiment, the body weight, mental state, activity ability, hair color changes, and paw appearance changes of the rats were observed and recorded daily. In addition, on Day 0 of the experiment (baseline period), the basic paw volume of all rats was accurately measured using a plethysmometer, which served as a reference standard for subsequent evaluation of inflammation severity. From Day 13 to Day 28 of the experiment, the paw volume of the rats was measured repeatedly every 3 days. The degree of paw swelling was quantified by calculating the change in paw volume relative to the baseline. Meanwhile, the arthritis index score was calculated based on the range of paw redness and swelling, the severity of swelling, and the degree of limb movement limitation, so as to comprehensively evaluate the inflammatory state. On Day 28 of the experiment (the end of the administration cycle), blood samples were collected via abdominal aortic puncture. The blood samples were centrifuged at 3000 rpm for 20 min, and the upper serum was collected and stored at −20 °C for subsequent detection. The rats were then sacrificed, and their ankle joint tissues were harvested for subsequent pathological section observation and analysis. The cytokine levels in serum were measured. The activity detection of CTSC and NSPs was carried out according to the above methods.

NE = assay: Stability (protein level) of NSPs in U937 cells, Western blot, NE; format: cell-based, human; conditions: U937, 10 μM
Protocol: The Western blot experiments in this study were performed as described below. Cells in the logarithmic growth phase were collected in appropriate numbers according to different experimental purposes. After being thoroughly washed with phosphate-buffered saline and centrifuged, the cell pellets were resuspended in phosphate-buffered saline to obtain single-cell suspensions. Cells were fully lysed using RIPA buffer (Beyotime, P0013B) supplemented with EDTA-free protease and phosphatase inhibitor (Abcam, ab201120). Total cellular protein solutions were obtained after centrifugation to remove cell debris. The isolated proteins were quantified using the BeyoBCA protein assay kit (Beyotime, P0399M) following the operational protocol. The quantified protein samples were thoroughly mixed with protein loading buffer, boiled on a dry bath for 5 min, and then cooled to room temperature for Western blot analysis. […] Finally, enhanced chemiluminescent horseradish peroxidase substrate (Tanon Science & Technology Co., Ltd., Shanghai, China, 180-506) was used to visualize protein bands on a ChemiDoc XRS system (Bio-Rad Laboratories, Inc., Hercules, CA, USA), and the protein bands were quantified using Image Lab analysis software (Version 6.1) (Bio-Rad). […]

CTSK = molecular target: T2, CTSK (Homo sapiens, UniProt P43235); assay: Human recombinant cathepsins isolated enzyme assay, CTSK; format: biochemical; conditions: read-out: CTSK Enz (IC50: μM)
T2 construct: purchased R&D Systems
Description: as §1

Chain of Dipeptidyl Peptidase 4 (P27487 whole entry, species assumed): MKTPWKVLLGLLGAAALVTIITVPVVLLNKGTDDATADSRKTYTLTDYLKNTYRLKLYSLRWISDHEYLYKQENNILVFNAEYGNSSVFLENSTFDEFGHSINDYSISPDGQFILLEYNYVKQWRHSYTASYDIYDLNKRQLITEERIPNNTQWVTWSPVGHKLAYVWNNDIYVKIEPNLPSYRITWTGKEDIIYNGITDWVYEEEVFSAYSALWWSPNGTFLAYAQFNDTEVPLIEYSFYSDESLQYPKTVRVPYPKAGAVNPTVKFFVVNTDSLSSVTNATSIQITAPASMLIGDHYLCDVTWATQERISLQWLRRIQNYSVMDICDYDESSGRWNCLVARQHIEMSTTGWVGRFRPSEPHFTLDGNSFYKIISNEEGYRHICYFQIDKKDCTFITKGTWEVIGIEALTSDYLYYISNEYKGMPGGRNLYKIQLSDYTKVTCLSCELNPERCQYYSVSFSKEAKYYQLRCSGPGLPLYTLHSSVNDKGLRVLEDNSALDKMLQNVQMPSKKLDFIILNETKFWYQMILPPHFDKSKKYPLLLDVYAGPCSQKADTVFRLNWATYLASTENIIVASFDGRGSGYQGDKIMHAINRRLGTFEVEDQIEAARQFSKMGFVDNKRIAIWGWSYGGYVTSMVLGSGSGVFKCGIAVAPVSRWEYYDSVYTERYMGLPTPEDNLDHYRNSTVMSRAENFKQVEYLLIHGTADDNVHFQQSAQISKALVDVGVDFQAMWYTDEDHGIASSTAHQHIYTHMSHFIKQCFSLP
T2 sequence (P43235 115-329): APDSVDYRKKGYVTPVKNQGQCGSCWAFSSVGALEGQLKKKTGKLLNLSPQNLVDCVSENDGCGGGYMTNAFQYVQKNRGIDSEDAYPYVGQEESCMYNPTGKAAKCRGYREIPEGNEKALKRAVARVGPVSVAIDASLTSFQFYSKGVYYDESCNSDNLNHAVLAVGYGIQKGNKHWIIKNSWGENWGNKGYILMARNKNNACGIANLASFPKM

C[C@@H]1C[C@H]2OC(=O)[C@@]3(C)CCC[C@@](C)([C@@H]23)[C@@]1(O)CCc1ccoc1 [Marrubiin, marrubiin]
IC50 (CTSB): 9.8 ± 1.1 µM | IC50 (Dipeptidyl Peptidase 4): > 10 µM | clinical score vs AIA model group (AIA model; 60 mg/kg gavage, from day 16 onwards): significantly lower than those of AIA model group | body weight recovery (AIA model; 60 mg/kg, from day 16 onwards): most significant weight recovery effects | histopathology of ankle joints (H&E, Safranin O/Fast Green) (AIA model; different doses (15, 30, 60 mg/kg)): reduced the histopathological statement | volume and thickness of inflamed paws (AIA model; different doses (15, 30, 60 mg/kg), days 16 to 28): continuous reduction in volume and a gradual decrease in thickness | NE protein level, % of original level (NE; 96 h): 15.7% | NE protein level, % of original level (NE; 5 days): 8.7% | IC50 (CTSK): > 5 µM
